Assay results published in PubChem BioAssay (NCI).
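Compound exposure: 48 hours, 5 concentrations, 96-well plates. TGI: total growth inhibition.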

Tests used:
Experiment in all cases: NCI tumour cell line growth inhibition, 48 h
[1] = system: KM20L2 colon
[2] = system: P388 leukemia
[3] = system: UO-31 renal
[4] = system: OVCAR-3 ovarian
[5] = system: RPMI-8226 leukemia
[6] = system: SF-268 CNS
[7] = system: OVCAR-4 ovarian
[8] = system: HOP-18 NSCLC
[9] = system: NCI-H226 lung
[10] = system: A498 renal
[11] = system: COLO 205 colon
[12] = system: HOP-62 NSCLC
[13] = system: P388/ADR leukemia
[14] = system: SK-MEL-28 melanoma
[15] = system: SK-MEL-2 melanoma
[16] = system: DMS 273 small cell lung
[17] = system: SNB-19 CNS
[18] = system: SR leukemia
[19] = system: TK-10 renal
[20] = system: T-47D breast

Compound | TGI [1] [µM] | TGI [2] [µM] | TGI [3] [µM] | TGI [4] [µM] | TGI [5] [µM] | TGI [6] [µM] | TGI [7] [µM] | TGI [8] [µM] | TGI [9] [µM] | TGI [10] [µM] | TGI [11] [µM] | TGI [12] [µM] | TGI [13] [µM] | TGI [14] [µM] | TGI [15] [µM] | TGI [16] [µM] | TGI [17] [µM] | TGI [18] [µM] | TGI [19] [µM] | TGI [20] [µM]
COC1OCC(O)C(NC(=O)N(C)N=O)C1O (stereo not drawn) | > 100 | > 100 | > 100 | > 100 | > 100 | > 100 | > 100 | > 100 | > 100 | > 100 | > 100 | > 100 | > 100 | > 100 | > 100 | > 100 | > 100 | – | – | –
CN(C)C(=O)Oc1c(Br)cc(Br)cc1C(=O)OCc1ccccc1 | 57.7 | 43 | 68.9 | 48 | 52.4 | > 100 | > 100 | 96.9 | > 77.3 | 71.4 | 34 | > 71.2 | 41.6 | 97.3 | > 71.2 | > 73.2 | > 100 | – | – | –
CCCCCCSc1nc(N)nc2nc[nH]c12 | > 100 | > 68 | 68.6 | > 100 | > 100 | > 100 | > 100 | > 72.6 | > 85.4 | > 100 | > 100 | > 100 | 44.4 | > 100 | > 100 | > 100 | > 100 | – | – | –
O=C1CC(/C=C/c2ccco2)=C(O)C1=O | – | – | 61.3 | 27.1 | 40.2 | 75 | 27.3 | – | 69.1 | – | 29.2 | 9.07 | – | 48.3 | 35.1 | – | 30.9 | 37.2 | 44.2 | 35.8
COC1/C=C/C=C(/C)Cc2cc(O)c(Cl)c(c2)N(C)C(=O)CC(OC(=O)C(C)C)C2(C)OC2C(C)C2CC1(O)NC(=O)O2 (stereo not drawn) | – | – | > 100 | > 100 | > 100 | 44.2 | < 0.01 | – | > 100 | – | 0.0104 | > 100 | – | – | > 43.6 | – | > 100 | > 55.4 | > 65.2 | > 100
CC[C@@]1(O)C[C@H](OC2CC(N(C)C)C(O)C(C)O2)c2c(cc3c(c2O)C(=O)c2c(O)ccc(O)c2C3=O)[C@H]1C(=O)OC (stereo partly drawn) | 0.969 | 0.0317 | 1 | 0.924 | 0.388 | 0.68 | 0.0918 | 1.3 | 0.455 | 0.239 | 0.359 | 0.672 | 0.0561 | 0.462 | 0.354 | 0.406 | 2.91 | – | – | –
O=c1ccc2ccc(CBr)cc2o1 | – | – | – | – | – | – | – | – | 23 | 29.5 | – | 30.6 | – | 26.6 | 26.6 | – | 24.8 | 5.05 | 3.37 | 5.76
CN(C)CCNC(=O)c1cccc2ccc(-c3ccc(Br)cc3)nc12 | 11.5 | 8.48 | 3.99 | 12.6 | 5.93 | 19.1 | 8.5 | 8.25 | 4.82 | 5.49 | 2.54 | 6.09 | 4.44 | 13.2 | 9.25 | 5.81 | 16.7 | – | – | –
CC(=O)C(=O)NC1/C=C(C)\C=C/C(O)C/C=C(C)\C=C/C(O)CC2OC(=O)C1(C)C(=O)C2C (stereo not drawn) | > 100 | > 48.2 | > 100 | > 100 | 98.9 | > 100 | > 100 | > 100 | > 100 | > 100 | > 100 | > 100 | > 66.6 | > 100 | > 100 | > 100 | > 100 | – | – | –
C/C(=N\Nc1nc2cc(Cl)ccc2s1)c1ccccn1 | – | – | 14.8 | 7.11 | > 32.4 | 34.1 | > 100 | – | > 100 | > 22.6 | > 60.4 | 11.1 | – | > 27.5 | – | – | 15.6 | > 100 | > 100 | 43.6
CC1(C)OC[C@H](C(=N)OCc2ccccc2)O1 | > 100 | – | > 100 | > 100 | > 100 | > 100 | > 100 | – | > 100 | > 100 | > 100 | > 100 | – | > 100 | > 100 | > 100 | > 100 | > 100 | > 100 | –
CCN1c2ccccc2NC(=S)c2c1n[nH]c2-c1ccccc1 | – | – | – | > 100 | 43.9 | 95.6 | > 100 | – | – | – | > 100 | – | – | > 100 | 60.1 | – | – | 67.3 | > 100 | 74.5
